Common to all, as to assay type: cell-based, human
Series [1] has as its system rheumatoid synoviocytes. The experiment in a line: WST-8 assay of proliferation activity of rheumatoid synoviocytes after siRNA treatment. The conditions noted are these: 96 hours after siRNA treatment; anti-GFP siRNA negative control = 100; FIG. 3A. How it is done:
The experiments were carried out as follows. Rheumatoid synoviocytes were seeded at 160 each into a 96-well, flat-bottom plate from the Falcon Co. After 24 hours, treatment was carried with anti-Synoviolin siRNA or anti-GFP siRNA, and the proliferation activity was investigated after an additional 96 hours. The GFP was used in this case as a negative control. The degree of cell proliferation was measured using a WST-8 assay from Dojindo Laboratories.
For orientation: Formazan colour is commonly taken as a measure of viable cells.

Series [2] has as its system synoviocytes. The experiment in a line: Apoptosis induction in synoviocytes, nuclear condensation by Hoechst 33258 DNA staining. The conditions noted are these: FIG. 3B. How it is done: Then, synoviocytes were seeded at 2500 each to an eight-well Lab-Tek Chamber from the Nunc Company and were incubated for 24 hours in an incubator under 5% CO2 at 37° C. 67 nM siRNA was thereafter introduced into the synoviocytes using TransIT-TKO transfection reagent from the Miru Bio Corporation. After additional incubation for 48 hours in an incubator under 5% CO2 at 37° C., 50 μg/mL tunicamycin was added, followed by incubation for 48 hours under the same conditions. The cells were then fixed and nuclear condensation was confirmed by DNA staining with Hoechst 33258.

The subject of series [3] is osteoarthritis synoviocytes (OA). Description: ER stress-inducible apoptosis, ssDNA Apoptosis ELISA, osteoarthritis synoviocytes. The conditions noted are these: OA synoviocytes (5 cases), 24 hours, FIG. 5. How it is done: (§1) The experiments were carried out as follows. […] Endoplasmic reticulum stress-inducible apoptosis was induced using tunicamycin at concentrations of 10, 30, and 100 μg/mL. Apoptosis was quantitated using the ssDNA Apoptosis ELISA kit from Chemicon International, Inc.
A general note: ELISA stands for enzyme-linked immunosorbent assay.

Series [4] relates to rheumatoid synoviocytes (RA). Description: ER stress-inducible apoptosis, ssDNA Apoptosis ELISA, rheumatoid synoviocytes. The conditions noted are these: RA synoviocytes (5 cases), 24 hours, FIG. 5. Here is the method:
as §1

As for “anti-Synoviolin siRNA: small interfering RNA against the Synoviolin gene; sense CGUUCCUGGUACGCCGUCAUU (SEQ ID NO: 1), antisense UGACGGCGUACCAGGAACGUU (SEQ ID NO: 2) (listed as RNA, chemistry not given here)”, the “proliferation activity of rheumatoid synoviocytes (GFP=100)” value in series [1] is “about 60%”. Besides, the “apoptosis induction in synoviocytes, co-use of siRNA with tunicamycin” value in series [2] (67 nM siRNA 48 hours, then 50 μg/mL tunicamycin 48 hours) was “increased”.

In the case of tunicamycin, the “apoptosis (ssDNA Apoptosis ELISA)” value in series [3] (tunicamycin 10 μg/mL) amounted to 2.18±1.19; in series [3] (tunicamycin 30 μg/mL), 2.76±1.84; in series [3] (tunicamycin 100 μg/mL), 3.65±2.53; in series [4] (tunicamycin 10 μg/mL), 0.73±0.30; in series [4] (tunicamycin 30 μg/mL) it was 0.84±0.35; in series [4] (tunicamycin 100 μg/mL), 0.81±0.28. Also, in series [2] (50 μg/mL tunicamycin, 48 hours), the “apoptosis induction in synoviocytes” value is given as “caused apoptosis induction”.

(Values after patent US20070244060A1, “Therapeutic Agent for Autoimmune Disease” (priority 2003, published 2007).)
